Laboratory results: patent US4287035A, “Method for producing rapid pH changes” (priority 1979, dated 1981)
Entries after “also recorded” stand apart in the source; their conditions may differ. Where two headings read alike, the source gives them in different places.

Tests used:
[1] = ground state, cited from earlier work
[2] = cited from earlier work
[3] = pK values of representative molecules in ground state (S0) and first excited singlet state (S1), Table I; format: physicochemical; details: S0 to S1
From the text: As shown by the data of the tables set forth in Ireland et al., the phenomenon is quite general and is characteristic of bases as well as acids. Ireland et al. is hereby incorporated by reference. Values of pK for representative molecules in the ground state (S0) and the first excited singlet state (S1) are given in Table I. Deprotonation results in increased acidity whereas protonation increases the basicity of the solution. […] The change in pK may be quite large.

[4] = Comparison of proton transfer time and excited state lifetime; format: physicochemical; details: for proton transfer time: excited state; for ability to produce pH change: on electronic excitation
From the text: Consider the situation wherein the proton transfer time for either protonation or deprotonation is longer than the excited state lifetime of the molecules in question. In this situation, it is not possible to achieve an acid-base equilibrium during the excited state lifetime. As a result, some of the photons that could be used to produce protons under acid-base equilibrium conditions are no longer available for this purpose because the excitation produced by them is lost in various decay processes from the excited state (see FIG. 1). It will be apparent therefore, that to maximize the pH change for a particular concentration and radiation fluence, it is highly desirable that the proton transfer time be substantially shorter than the excited state lifetime.
It can, however, be readily determined for any compound of interest by means of time resolved spectroscopy of species in the solution. In the case of an acid reaction of the type shown in reaction (1), these would be the acid AH and the anion A^-. Such spectroscopy permits the concentrations of these species to be ascertained.
The requisite spectroscopic measurements are quite straightforward if (a) the excited states of both AH and A^- fluoresce, (b) the fluorescence from the excited states of AH and A^- is sufficiently spectrally shifted that they can be distinguished from one another, and (c) excited state protonation and deprotonation occur with retention of the electronic excitation. […] In those instances where they are not met it is still possible to obtain the necessary information by means of various techniques well known to those versed in the spectroscopic arts. Thus, for example, lack of fluorescence from the excited states of AH and A^- can be overcome by probing with excited-state absorption spectroscopy rather than emission spectroscopy.

[5] = cited from earlier work; for pK(S0): ground state
[6] = Excited state protonation/deprotonation of 2-naphthol-6-sulfonate by picosecond laser/streak camera fluorescence; format: physicochemical
From the text: A number of runs were made to obtain measurements from which the rates of excited state protonation and deprotonation kf and kb, respectively, could be determined for the reaction: [formula] […] As long as the solution is not so acidic as to make the protonation reaction fast (pH≤3), the rate of excited state proton transfer is simply determined from the risetime of the anion emission.
Since the fluorescence of 2-naphthol-6-sulfonate (λmax ~360 nm) is considerably shifted from that of its anion (λmax ~430 nm), only the anion emission is recorded when 450±10 nm spectral filter 14 is placed between the sample cell 12 and the slit of streak camera 15. FIG. 4 is a plot of the risetime (10-90%) of the emission from the 2-naphthol-6-sulfonate anion versus the initial pH of the solution. Individual points represent the average of four to six separate streak camera exposures. […] At very high acidities, the protonation rate becomes so rapid that the temporal profile of the excited anion emission follows that of the protonated species.
By measuring the time history of both anionic and acidic species under a variety of experimental conditions and using a kinetic scheme which includes terms for the fluorescence lifetimes and quenching, the complete kinetics of the excited state protonation deprotonation are readily obtained. For 2-naphthol-6-sulfonate, kf =(1.02±0.3)×10^9 sec^-1 and kb =(9.0±3)×10^10 l-mole^-1 -sec^-. The solid line of FIG. 4 is a fit using a kinetic model with kf and kb having these values.

[7] = pH jump (more acidic) by 266 nm irradiation of 2-naphthol-6-sulfonate solution
From the text: A single 30 psec pulse 4 at 1064 nm is extracted from the pulse train of mode-locked Nd:YAG laser 1 by means of Blumlein electronic switchout unit 3. The flowing dye 2 serves to mode lock laser 1. A second harmonic of pulse 4 is generated at 532 nm in KDP crystal 5.
Wavelengths other than 532 nm are then removed from pulse 4 by means of spectral filters 6. The 532 nm pulse is reflected from mirror 7 through ADP crystal 8 where it in turn is frequency doubled to produce the fourth harmonic at 266 nm.
Beam splitter 11 directs a portion of the 266 nm pulse to energy meter 20. […] The beam size on sample 12 is ~0.1 mm. […] Appropriate filters 14 are used to isolate various emission bands.
The pH of the solutions was adjusted by addition of reagent grade HCl or NaOH and was measured on a pH meter (Fisher Model 230) accurate to about 0.1 pH unit.

[8] = Excited state protonation of coumarin 102 by time-resolved fluorescence; format: physicochemical
From the text: (§1) A proton attaches at the carbonyl site by the reaction [formula] Here Kp is the protonation rate constant and kdp is the deprotonation rate constant.
(§2) Experimental runs utilized laser grade coumarin 102 (Eastman) which was maintained at a concentration of 1.0×10^-3 M in a 1:1 H2 O:ethanol solvent. Deionized, distilled water and reagent grade ethanol were used for all of the runs. The solution pH was varied by the addition of reagent grade HCl and measured to an accuracy of 0.05 pH unit with a pH meter (Markson 90). The apparatus of FIG. 3 was modified to the extent that ADP crystal 8 was replaced by a KDP sum frequency generator to produce […] radiation which excited the sample. Filter 9 was either a 435 nm interference filter or a Corning 2-62 filter to isolate fluorescence from coumarin 102 and its cation, respectively.
The experimental runs were made to obtain measurements of the time history of both species under a variety of experimental conditions.

[9] = pH jump (more basic) by irradiation of coumarin 102 solution; format: physicochemical
From the text: as §1, §2

[10] = reaction as drawn in the line of Table II
[11] = 1.0×10^-3 M in water, 266 nm, 20 psec pulse

## Nc1ccc2ccccc2c1 [2-Naphthylamine]
[1]; [10]
  pK(S0): ≥ 14
[1]; second 2-Naphthylamine line, reaction drawing 7
  pK(S0): 4.1

## O=C(c1ccccc1)c1ccccc1 [benzophenone]
[2]
  triplet state lifetime: several to tens of milliseconds

## O=c1c2ccccc2oc2ccccc12 [Xanthone]
[2]
  triplet state lifetime: several to tens of milliseconds
[1]; [10]
  pK(S0): -4.1

## c1ccc2c(c1)Cc1ccccc1-2 [Fluorene, reference compound]
[3]
  pK change upon excitation: 29

## Oc1ccc2ccccc2c1 [2-Naphthol]
[4]
  excited state lifetime: ~ 6×10^-9 sec
  proton transfer time: 2e-08 s
  ability to produce pH change: cannot; also recorded: the amount of the change is substantially less than that which can be achieved with 2-naphthol-6-sulfonate
[5]
  pK(S0): 9.5

## c1ccc2c(c1)ccc1ccccc12 [Phenanthrene, reference compound]
[5]; ground state versus first excited singlet state
  acidity/basicity in ground and excited state: becomes less acidic (more basic) in the excited state
[5]
  pK(S0): -3.5

## c1ccc2nc3ccccc3cc2c1 [Acridine]
[1]; [10]
  pK(S0): 5.5

## c1ccc2ccccc2c1 [Naphthalene]
[1]; [10]
  pK(S0): -4.0

## O=S(=O)(O)c1ccc2cc(O)ccc2c1 [2-Naphthol-6-Sulfonate]
[3]
  pK change upon excitation: 7
[4]
  excited state lifetime: 1e-08 s
  proton transfer time: less than 1×10^-9 sec
  ability to produce pH change: can be used to produce large and very rapid pH modulation
[6]; 1.0×10^-3 M in water
  results with freshly prepared and day-old solutions: identical
[6]; [11]
  rate of excited state deprotonation/proton transfer, kf: (1.02±0.3)×10^9 sec^-1
  rate of excited state protonation, kb: (9.0±3)×10^10 l-mole^-1 -sec^-
[6]; 450±10 nm, initial pH varied
  risetime (10-90%) of anion emission versus initial pH: As the solution becomes more acidic, the risetime becomes more rapid
[5]
  pK(S0): 9.1
[7]
  excited state acid-base equilibrium: excited state acid-base equilibrium is achieved
  excited state lifetime: about 10 nsec
[7]; 20 psec, 266 nm pulse, typically 30 μJ
  increase in H3O^+: more than 10^-4 M
[7]; excited state
  proton transfer time: less than 1 nsec

## c1ccc(N=Nc2ccccc2)cc1 [Azobenzene]
[1]; [10]
  pK(S0): -2.90

## Cc1cc(=O)oc2c3c4c(cc12)CCCN4CCC3 [coumarin 102]
[8]; 1:1 H2O:ethanol
  deprotonation during excited state lifetime: very small
  excited state acid-base equilibrium: excited state acid-base equilibrium is not achieved
[8]; 1.0×10^-3 M in 1:1 H2O:ethanol
  excited state lifetime: 3.3±0.3 nsec
[8]; 1.0×10^-3 M in 1:1 H2O:ethanol, 355 μm (so in the source) excitation
  excited state protonation rate constant kp: (1.6 ±0.3)×10^10 l-mole^-1 -sec^-1
[9]; concentrations near 10^-3 M
  quenching of excited states: no evidence of quenching of excited states
[9]; initial pH 4, 355 nm pulses >1 mJ
  pH after pH jump: 4.1
